Patent US7964531B2, “3-phenoxy-4-pyridazinol derivatives and herbicidal composition containing the same” (Mitsui Chemicals Agro, Inc., priority 2001, dated 2011)

Row | Compound | melting point
1 | CCc1ccc2c(c1Oc1nnc(Cl)cc1O)CCC2 [Compound No. 1089, 6-Chloro-3-[(5-ethyl-2,3-dihydro-1H-inden-4-yl)oxy]-4-pyridazinol] | 193 to 196 °C
2 | Oc1cc(Cl)nnc1Oc1c(C2CC2)ccc2c1CCC2 [Compound No. 1091, 6-Chloro-3-[(5-cyclopropyl-2,3-dihydro-1H-inden-4-yl)oxy]-4-pyridazinol] | 218 to 220 °C
3 | Cc1ccc2c(c1Oc1nnc(Cl)cc1O)OCC2 [Compound No. 1096, 6-Chloro-3-[(6-methyl-2,3-dihydro-1-benzofuran-7-yl)oxy]-4-pyridazinol] | 217 to 219 °C
4 | Oc1cc(Cl)nnc1Oc1c(C2CC2)ccc2ccoc12 [Compound No. 1102, 6-Chloro-3-[(6-cyclopropyl-1-benzofuran-7-yl)oxy]-4-pyridazinol] | 175 to 180 °C
5 | Cc1ccc2occc2c1Oc1nnc(Cl)cc1O [Compound No. 1109, 6-Chloro-3-[(5-methyl-1-benzofuran-4-yl)oxy]-4-pyridazinol] | 222 to 225 °C
6 | Cc1cc(Br)c(C)c(Br)c1Oc1nnc(Cl)cc1O [Compound No. 1118, 6-Chloro-3-(2,4-dibromo-3,6-dimethylphenoxy)-4-pyridazinol] | 241 to 248 °C
7 | Cc1cc(C)c(Oc2nnc(Cl)cc2O)c(Br)c1 [Compound No. 1119, 3-(2-Bromo-4,6-dimethylphenoxy)-6-chloro-4-pyridazinol] | 254 to 256 °C
8 | CCc1cc(I)cc(I)c1Oc1nnc(Cl)cc1O [Compound No. 1120, 6-Chloro-3-(2-ethyl-4,6-diiodophenoxy)-4-pyridazinol] | 142 to 144 °C
9 | Cc1cc(C)c(Oc2nnc(Cl)cc2O)c(C)c1 [Compound No. 1122, 6-Chloro-3-(2,4,6-trimethylphenoxy)-4-pyridazinol] | 235 to 239 °C
10 | Cc1cc(C)c(Oc2nnc(Cl)cc2O)c(C2CC2)c1 [Compound No. 1123, 6-Chloro-3-(2-cyclopropyl-4,6-dimethylphenoxy)-4-pyridazinol] | 215 to 217 °C
11 | Cc1cc(C)c(Br)c(Oc2nnc(Cl)cc2O)c1C [Compound No. 1124, 3-(2-Bromo-3,5,6-trimethylphenoxy)-6-chloro-4-pyridazinol] | 280 to 290 °C
12 | Cc1cc(C)c(C)c(Oc2nnc(Cl)cc2O)c1C [Compound No. 1125, 6-Chloro-3-(2,3,5,6-tetramethylphenoxy)-4-pyridazinol] | 278 to 283 °C
13 | Cc1cc(C)c(C2CC2)c(Oc2nnc(Cl)cc2O)c1C [Compound No. 1126, 6-Chloro-3-(2-cyclopropyl-3,5,6-trimethylphenoxy)-4-pyridazinol] | 212 to 219 °C
14 | COc1c(C)cc(C)c(C)c1Oc1nnc(Cl)cc1O [Compound No. 1128, 6-Chloro-3-(2-methoxy-3,5,6-trimethylphenoxy)-4-pyridazinol] | 209 to 210 °C
15 | Cc1cc2c(c(Oc3nnc(Cl)cc3O)c1C)CCC2 [Compound No. 1129, 6-Chloro-3-[(5,6-dimethyl-2,3-dihydro-1H-inden-4-yl)oxy]-4-pyridazinol] | 210 to 213 °C
16 | CC(=O)Oc1cc(Cl)nnc1Oc1c(C)cccc1C1CC1 [Compound No. 1151, 6-Chloro-3-(2-cyclopropyl-6-methylphenoxy)-4-pyridazinyl acetate] | 98 to 101 °C
17 | CCC(=O)Oc1cc(Cl)nnc1Oc1c(C)cccc1C1CC1 [Compound No. 1160, 6-Chloro-3-(2-cyclopropyl-6-methylphenoxy)-4-pyridazinyl propionate] | 75 to 77 °C

Row | Compound | melting point
18 | Cc1cccc(C2CC2)c1Oc1nnc(Cl)cc1OC(=O)C(C)C [Compound No. 1172, 6-Chloro-3-(2-cyclopropyl-6-methylphenoxy)-4-pyridazinyl 2-methylpropanoate] | 38 to 39 °C
19 | Cc1cccc(C2CC2)c1Oc1nnc(Cl)cc1OC(=O)CC(C)C [Compound No. 1184, 6-Chloro-3-(2-cyclopropyl-6-methylphenoxy)-4-pyridazinyl 3-methylbutanoate] | 71 to 74 °C
20 | Cc1cccc(C2CC2)c1Oc1nnc(Cl)cc1OC(=O)C(C)(C)C [Compound No. 1207, 6-Chloro-3-(2-cyclopropyl-6-methylphenoxy)-4-pyridazinyl pivalate] | 84 to 87 °C
21 | CCCCCCCCCCCCCCC(=O)Oc1cc(Cl)nnc1Oc1c(C)cccc1C1CC1 [Compound No. 1260, 6-Chloro-3-(2-cyclopropyl-6-methylphenoxy)-4-pyridazinyl pentadecanoate] | 35 to 37 °C
22 | O=C(Oc1cc(Cl)nnc1Oc1ccccc1C1CC1)C1CC1 [Compound No. 1266, 6-Chloro-3-(2-cyclopropylphenoxy)-4-pyridazinyl cyclopropanecarboxylate] | 122 to 125 °C
23 | Cc1ccccc1Oc1nnc(Cl)cc1OC(=O)c1ccccc1C [Compound No. 1446, 6-Chloro-3-(2-methylphenoxy)-4-pyridazinyl 2-methylbenzoate] | 91 to 93 °C
24 | Cc1ccccc1C(=O)Oc1cc(Cl)nnc1Oc1ccccc1C1CCCCC1 [Compound No. 1455, 6-Chloro-3-(2-cyclohexylphenoxy)-4-pyridazinyl 2-methylbenzoate] | 89 to 91 °C
25 | Cc1ccccc1C(=O)Oc1cc(Cl)nnc1Oc1cccc(C(C)(C)C)c1 [Compound No. 1457, 3-(3-tert-Butylphenoxy)-6-chloro-4-pyridazinyl 2-methylbenzoate] | 63 to 64 °C
26 | COc1cccc(Oc2nnc(Cl)cc2OC(=O)c2ccccc2C)c1 [Compound No. 1458, 6-Chloro-3-(3-methoxyphenoxy)-4-pyridazinyl 2-methylbenzoate] | 66 to 67 °C
27 | Cc1ccc(C(C)C)c(Oc2nnc(Cl)cc2OC(=O)c2ccccc2C)c1 [Compound No. 1459, 6-Chloro-3-(2-isopropyl-5-methylphenoxy)-4-pyridazinyl 2-methylbenzoate] | 95 to 97 °C
28 | Cc1ccccc1C(=O)Oc1cc(Cl)nnc1Oc1cccc2ccccc12 [Compound No. 1461, 6-Chloro-3-(1-naphthyloxy)-4-pyridazinyl 2-methylbenzoate] | 133 to 134 °C
29 | COc1ccccc1C(=O)Oc1cc(Cl)nnc1Oc1ccccc1C [Compound No. 1509, 6-Chloro-3-(2-methylphenoxy)-4-pyridazinyl 2-methoxybenzoate] | 114 to 116 °C
30 | Cc1ccc(C(=O)Oc2cc(Cl)nnc2Oc2ccccc2C)cc1 [Compound No. 1553, 6-Chloro-3-(2-methylphenoxy)-4-pyridazinyl 4-methylbenzoate] | 105 to 108 °C
31 | Cc1ccc(C(=O)Oc2cc(Cl)nnc2Oc2c(C)cccc2C2CC2)cc1 [Compound No. 1566, 6-Chloro-3-(2-cyclopropyl-6-methylphenoxy)-4-pyridazinyl 4-methylbenzoate] | 77.5 to 78 °C
32 | Cc1cccc(C2CC2)c1Oc1nnc(Cl)cc1OC(=O)c1ccc(C(C)(C)C)cc1 [Compound No. 1575, 6-Chloro-3-(2-cyclopropyl-6-methylphenoxy)-4-pyridazinyl 4-tert-butylbenzoate] | 139 to 142 °C
33 | Cc1ccccc1Oc1nnc(Cl)cc1OC(=O)c1ccc(Cl)cc1Cl [Compound No. 1603, 6-Chloro-3-(2-methylphenoxy)-4-pyridazinyl 2,4-dichlorobenzoate] | 81 to 82.5 °C
